According to US11339419B2, “Scavenger protein(s) for improved preservation of analyte detection sensor(s) and method(s) of use thereof” (Siemens Healthcare Diagnostics Inc., priority 2017, dated 2022):
“And” between values parts separate entries of the source, which are not always exact repeats. Identical values can stand only once.

Tested on: creatininase (BBI Solutions)
Assay: BBI Solutions Creatininase Enzyme Absorbance with BSA and MIT
Assay type: biochemical
[1] = Day 0, 5 mg/mL BSA, no MIT (row of 50 ppm MIT)
[2] = Day 0, 5 mg/mL BSA, no MIT (row of 100 ppm MIT)
[3] = Day 0, 25 mg/mL BSA, no MIT (row of 50 ppm MIT)
[4] = Day 0, 25 mg/mL BSA, no MIT (row of 100 ppm MIT)
[5] = Day 0, 50 mg/mL BSA, no MIT (row of 50 ppm MIT)
[6] = Day 0, 50 mg/mL BSA, no MIT (row of 100 ppm MIT)
[7] = Day 0, 50 ppm MIT, 25 mg/mL BSA
[8] = Day 0, 50 ppm MIT, 50 mg/mL BSA
[9] = Day 4, 5 mg/mL BSA, no MIT (row of 50 ppm MIT)
[10] = Day 4, 5 mg/mL BSA, no MIT (row of 100 ppm MIT)
[11] = Day 4, 25 mg/mL BSA, no MIT (row of 50 ppm MIT)
[12] = Day 4, 25 mg/mL BSA, no MIT (row of 100 ppm MIT)
[13] = Day 4, 50 mg/mL BSA, no MIT (row of 50 ppm MIT)
[14] = Day 4, 50 mg/mL BSA, no MIT (row of 100 ppm MIT)
[15] = Day 14, 5 mg/mL BSA, no MIT (row of 50 ppm MIT)
[16] = Day 14, 5 mg/mL BSA, no MIT (row of 100 ppm MIT)
[17] = Day 14, 25 mg/mL BSA, no MIT (row of 50 ppm MIT)
[18] = Day 14, 25 mg/mL BSA, no MIT (row of 100 ppm MIT)
[19] = Day 14, 50 mg/mL BSA, no MIT (row of 50 ppm MIT)
[20] = Day 14, 50 mg/mL BSA, no MIT (row of 100 ppm MIT)

Description: Table 5-8 depict aqueous solutions comprising varying concentrations of BSA (at concentrations of 0 mg/mL, 5 mg/mL, 25 mg/mL, and 50 mg/mL), varying concentrations of MIT (at concentrations of 50 parts per million and 100 parts per million) or Proclin™ 300 (at concentrations of 0.7% and 1.4%) biocide over a particular time period (measurements were taken at days 0, 4, and 14 after exposure of the enzyme(s) to the particular aqueous solutions) and the associated enzyme absorbance measurements for creatininase (commercially offered for sale by BBI Solutions and Toyobo). Absorbance measurements of the creatininase enzyme(s) were taken via spectrophotometer for each aqueous solution (represented as columns 1-5 in Tables 5-8—column 6 is a blank), the absorbance being directly proportional to the enzyme activity being measured-which for Tables 5-8 is creatininase enzyme activity. Accordingly, the higher the absorbance measurement, the higher the enzyme activity of creatininase. Columns 7-11 represent five replicate readings in which the solution only contains BSA (i.e., there is no biocide(s) present in the solution). In addition, the mean values, standard deviations, and coefficients of variation are all presented for the enzyme activity/absorbance of each aqueous solution. All measurements were taken at 37° C.
As depicted in Table 5, creatininase (commercially offered for sale by BBI Solutions) enzyme activity is measured against various concentrations of MIT (biocide) and BSA (scavenger protein) over a period of 14 days (with absorbance measurement taken at 0, 4, and 14 days) for five different aqueous solutions (represented as columns 1-5—column 6 is a blank).

bovine serum albumin [BSA]
Creatininase Enzyme Absorbance, columns 7-11 [1]: 0.717 and 0.707 and 0.75 and 0.728
MEAN (columns 7-11) [1]: 0.51
Creatininase Enzyme Absorbance, columns 7-11 [2]: 0.767 and 0.759 and 0.781 and 0.761 and 0.773
MEAN (columns 7-11) [2]: 0.56
Creatininase Enzyme Absorbance, columns 7-11 [3]: 0.736 and 0.712 and 0.709 and 0.752 and 0.746
MEAN (columns 7-11) [3]: 0.52
Creatininase Enzyme Absorbance, columns 7-11 [4]: 0.688 and 0.694 and 0.72 and 0.733 and 0.705
MEAN (columns 7-11) [4]: 0.50
Creatininase Enzyme Absorbance, columns 7-11 [5]: 0.759 and 0.723 and 0.742 and 0.773 and 0.777
MEAN (columns 7-11) [5]: 0.54
Creatininase Enzyme Absorbance, columns 7-11 [6]: 0.661 and 0.68 and 0.708 and 0.702 and 0.686
MEAN (columns 7-11) [6]: 0.48
% Bias (Day 0, 50 ppm MIT vs no MIT, 5 mg/mL BSA): 6.0%
% Bias (Day 0, 50 ppm MIT vs no MIT, 25 mg/mL BSA): 4.8%
% Bias (Day 0, 50 ppm MIT vs no MIT, 50 mg/mL BSA): 3.6%
Creatininase Enzyme Absorbance (Day 0, 50 ppm MIT, 5 mg/mL BSA): 0.774 and 0.737 and 0.726 and 0.733 and 0.74
MEAN (Day 0, 50 ppm MIT, 5 mg/mL BSA): 0.54
Creatininase Enzyme Absorbance [7]: 0.751 and 0.713 and 0.818 and 0.733
MEAN [7]: 0.54
Creatininase Enzyme Absorbance [8]: 0.773
MEAN [8]: 0.56
% Bias (Day 0, 100 ppm MIT vs no MIT, 5 mg/mL BSA): 6.8%
% Bias (Day 0, 100 ppm MIT vs no MIT, 25 mg/mL BSA): 8.0%
% Bias (Day 0, 100 ppm MIT vs no MIT, 50 mg/mL BSA): 3.7%
MEAN (Day 0, 100 ppm MIT, 5 mg/mL BSA): 0.59
MEAN (Day 0, 100 ppm MIT, 25 mg/mL BSA): 0.54
MEAN (Day 0, 100 ppm MIT, 50 mg/mL BSA): 0.49
Creatininase Enzyme Absorbance, columns 7-11 [9]: 0.95 and 0.906 and 0.917 and 0.926 and 0.911
MEAN (columns 7-11) [9]: 0.71
Creatininase Enzyme Absorbance, columns 7-11 [10]: 0.927 and 0.89 and 0.906 and 0.925 and 0.892
MEAN (columns 7-11) [10]: 0.69
Creatininase Enzyme Absorbance, columns 7-11 [11]: 0.821 and 0.794 and 0.77 and 0.793
MEAN (columns 7-11) [11]: 0.59
Creatininase Enzyme Absorbance, columns 7-11 [12]: 0.793 and 0.779 and 0.783 and 0.8 and 0.814
MEAN (columns 7-11) [12]: 0.58
Creatininase Enzyme Absorbance, columns 7-11 [13]: 0.621 and 0.592 and 0.597 and 0.625 and 0.622
MEAN (columns 7-11) [13]: 0.40
Creatininase Enzyme Absorbance, columns 7-11 [14]: 0.647 and 0.629 and 0.631 and 0.657 and 0.637
MEAN (columns 7-11) [14]: 0.43
% Bias (Day 4, 50 ppm MIT vs no MIT, 5 mg/mL BSA): 3.8%
% Bias (Day 4, 50 ppm MIT vs no MIT, 25 mg/mL BSA): 4.5%
% Bias (Day 4, 50 ppm MIT vs no MIT, 50 mg/mL BSA): 14.7%
MEAN (Day 4, 50 ppm MIT, 5 mg/mL BSA): 0.73
MEAN (Day 4, 50 ppm MIT, 25 mg/mL BSA): 0.61
MEAN (Day 4, 50 ppm MIT, 50 mg/mL BSA): 0.46
% Bias (Day 4, 100 ppm MIT vs no MIT, 5 mg/mL BSA): 2.3%
% Bias (Day 4, 100 ppm MIT vs no MIT, 25 mg/mL BSA): 2.7%
% Bias (Day 4, 100 ppm MIT vs no MIT, 50 mg/mL BSA): 14.0%
MEAN (Day 4, 100 ppm MIT, 5 mg/mL BSA): 0.71
MEAN (Day 4, 100 ppm MIT, 25 mg/mL BSA): 0.60
MEAN (Day 4, 100 ppm MIT, 50 mg/mL BSA): 0.49
Creatininase Enzyme Absorbance, columns 7-11 [15]: 1.062 and 1.055 and 1.027 and 1.067 and 1.069
MEAN (columns 7-11) [15]: 0.80
Creatininase Enzyme Absorbance, columns 7-11 [16]: 1.061 and 1.054 and 1.018 and 1.051
MEAN (columns 7-11) [16]: 0.79
Creatininase Enzyme Absorbance, columns 7-11 [17]: 0.931 and 0.918 and 0.882 and 0.905 and 0.92
MEAN (columns 7-11) [17]: 0.65
Creatininase Enzyme Absorbance, columns 7-11 [18]: 0.91 and 0.907 and 0.879 and 0.898 and 0.905
MEAN (columns 7-11) [18]: 0.64
Creatininase Enzyme Absorbance, columns 7-11 [19]: 0.745 and 0.73 and 0.711 and 0.727 and 0.732
MEAN (columns 7-11) [19]: 0.47
Creatininase Enzyme Absorbance, columns 7-11 [20]: 0.74 and 0.737 and 0.713 and 0.724
MEAN (columns 7-11) [20]: 0.47
% Bias (Day 14, 50 ppm MIT vs no MIT, 5 mg/mL BSA): 1.8%
% Bias (Day 14, 50 ppm MIT vs no MIT, 25 mg/mL BSA): −0.5%
% Bias (Day 14, 50 ppm MIT vs no MIT, 50 mg/mL BSA): −2.4%
MEAN (Day 14, 50 ppm MIT, 5 mg/mL BSA): 0.81
MEAN (Day 14, 50 ppm MIT, 25 mg/mL BSA): 0.65
MEAN (Day 14, 50 ppm MIT, 50 mg/mL BSA): 0.46
% Bias (Day 14, 100 ppm MIT vs no MIT, 5 mg/mL BSA): 0.3%
% Bias (Day 14, 100 ppm MIT vs no MIT, 25 mg/mL BSA): −1.0%
% Bias (Day 14, 100 ppm MIT vs no MIT, 50 mg/mL BSA): 0.7%
MEAN (Day 14, 100 ppm MIT, 5 mg/mL BSA): 0.79
MEAN (Day 14, 100 ppm MIT, 25 mg/mL BSA): 0.64
MEAN (Day 14, 100 ppm MIT, 50 mg/mL BSA): 0.47
absorbance of the creatininase enzyme compared to samples containing 0 mg/mL of BSA (days 4 and 14, 5, 25 and 50 mg/mL BSA, with MIT): increased absorbance
creatininase absorbance, solutions 7-11 (days 4 and 14, only BSA, no MIT): increased (or at least maintained)
BSA concentration at which the creatininase absorbance measurement is highest (days 4 and 14, with MIT): 5 mg/mL
